Several values for one entry are separate records, joined by “and”; a condition that tells them apart may be missing. Identical values can stand only once.
How the values were obtained:
[1] = biological target: T1, recombinant human PREP (Homo sapiens, UniProt P48147); test: PREP inhibition, fluorogenic substrate Z-Gly-Pro-AMC; type: biochemical; conditions: Inhibitory Activity (IC50, nM) PREP, recombinant human PREP
T1 construct: purchased R&D System
T1 sequence (P48147 1-710): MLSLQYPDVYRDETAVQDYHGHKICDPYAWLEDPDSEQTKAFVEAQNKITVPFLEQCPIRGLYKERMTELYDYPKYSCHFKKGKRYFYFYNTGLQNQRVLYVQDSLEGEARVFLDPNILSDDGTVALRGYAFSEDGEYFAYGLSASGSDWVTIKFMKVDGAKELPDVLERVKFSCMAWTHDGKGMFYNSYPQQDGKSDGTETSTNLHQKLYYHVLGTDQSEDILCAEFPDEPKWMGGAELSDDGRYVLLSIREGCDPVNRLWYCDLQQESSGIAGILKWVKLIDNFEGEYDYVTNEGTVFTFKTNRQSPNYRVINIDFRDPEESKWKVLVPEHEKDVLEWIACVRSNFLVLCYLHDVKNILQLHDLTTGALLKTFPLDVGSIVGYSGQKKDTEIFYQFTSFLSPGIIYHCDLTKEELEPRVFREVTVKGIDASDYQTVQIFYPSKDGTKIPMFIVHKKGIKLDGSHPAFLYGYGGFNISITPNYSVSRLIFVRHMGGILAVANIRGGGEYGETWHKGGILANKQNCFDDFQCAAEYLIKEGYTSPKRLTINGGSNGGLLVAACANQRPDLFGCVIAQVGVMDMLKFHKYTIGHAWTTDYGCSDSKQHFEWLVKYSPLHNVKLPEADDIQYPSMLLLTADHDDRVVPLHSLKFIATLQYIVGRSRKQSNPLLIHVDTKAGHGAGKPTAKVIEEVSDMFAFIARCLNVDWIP
Procedure, shortened: (§1)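 Enzyme per reaction: 50 ng DPP9, 20 ng DPP8, 10 ng each DPP7 and PREP. Compounds were serially diluted (8 points, up to 0.5% DMSO) and incubated at 25 °C.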

[2] = biological target: T2, recombinant human DPP8 (Homo sapiens, UniProt Q6V1X1); test: DPP8 inhibition, fluorogenic substrate Z-Ala-Pro-AMC; type: biochemical; conditions: recombinant human DPP8
T2 construct: purchased PBS Bioscience
T2 sequence (Q6V1X1 whole entry): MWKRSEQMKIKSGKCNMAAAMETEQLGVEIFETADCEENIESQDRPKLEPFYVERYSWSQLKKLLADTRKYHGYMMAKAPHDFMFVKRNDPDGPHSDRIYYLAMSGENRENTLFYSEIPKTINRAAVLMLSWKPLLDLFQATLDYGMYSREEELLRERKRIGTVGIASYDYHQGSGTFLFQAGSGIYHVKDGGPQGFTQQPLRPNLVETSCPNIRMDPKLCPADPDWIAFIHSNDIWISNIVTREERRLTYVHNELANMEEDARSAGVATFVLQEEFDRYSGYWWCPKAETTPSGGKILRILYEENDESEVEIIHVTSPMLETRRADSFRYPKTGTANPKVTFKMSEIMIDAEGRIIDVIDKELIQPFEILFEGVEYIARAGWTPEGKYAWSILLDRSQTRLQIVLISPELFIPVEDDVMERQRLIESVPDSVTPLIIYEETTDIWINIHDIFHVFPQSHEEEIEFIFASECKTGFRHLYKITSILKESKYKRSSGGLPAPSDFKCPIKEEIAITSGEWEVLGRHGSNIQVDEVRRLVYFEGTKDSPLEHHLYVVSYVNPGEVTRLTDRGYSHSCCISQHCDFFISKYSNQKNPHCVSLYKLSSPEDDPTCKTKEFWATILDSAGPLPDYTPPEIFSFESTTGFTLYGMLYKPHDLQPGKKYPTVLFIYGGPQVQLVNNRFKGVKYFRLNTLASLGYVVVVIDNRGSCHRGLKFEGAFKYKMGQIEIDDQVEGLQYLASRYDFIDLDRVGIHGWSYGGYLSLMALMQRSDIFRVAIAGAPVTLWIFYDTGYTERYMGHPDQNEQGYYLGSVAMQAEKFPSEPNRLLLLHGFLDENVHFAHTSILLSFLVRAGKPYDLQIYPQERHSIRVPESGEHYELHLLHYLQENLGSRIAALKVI
Procedure, shortened: as §1

SMILES	IC50 [1]	IC50 [2] [µM]
N#C[C@@H]1C[C@H](F)CN1C(=O)CN1CC[C@H](Nc2cccc3ncc(F)cc23)C1 [Example 255, (2S,4S)-4-fluoro-1-[2-[(3S)-3-[(3-fluoro-5-quinolyl)amino]pyrrolidin-1-yl]acetyl]pyrrolidine-2-carbonitrile]	2210 nM	5.1
COc1cc2c(NC3CCN(CC(=O)N4C[C@@H](F)C[C@H]4C#N)CC3)cccc2cn1 [Example 355, (2S,4S)-4-fluoro-1-[2-[4-[(3-methoxy-5-isoquinolyl)amino]-1-piperidyl]acetyl]pyrrolidine-2-carbonitrile]	14200 nM	> 100
N#C[C@@H]1C[C@H](F)CN1C(=O)CN1CC[C@H](Nc2ccc(OCc3ccccc3)c3ncccc23)C1 [Example 268, (2S,4S)-4-fluoro-1-[2-[(3S)-3-[(8-benzyloxy-5-quinolyl)amino]pyrrolidin-1-yl]acetyl]pyrrolidine-2-carbonitrile]	3520 nM	1.11
N#C[C@@H]1C[C@H](F)CN1C(=O)CN1CCC(Nc2ccc(C(F)(F)F)c3ncccc23)CC1 [Example 334, (2S,4S)-4-fluoro-1-[2-[4-[[8-(trifluoromethyl)-5-quinolyl]amino]-1-piperidyl]acetyl]pyrrolidine-2-carbonitrile]	2300 nM and 2780 nM	–
N#Cc1ccc(N[C@H]2CCN(CC(=O)N3CCC[C@H]3C#N)C2)c2cccnc12 [Example 247, 5-[[(3S)-1-[2-oxo-2-[(2S)-2-cyanopyrrolidin-1-yl]ethyl]pyrrolidin-3-yl]amino]quinoline-8-carbonitrile]	> 10000 nM	> 100
N#C[C@@H]1C[C@H](F)CN1C(=O)CN1CCC(Nc2ccc(OC(F)(F)F)c3ncccc23)CC1 [Example 347, (2S,4S)-4-fluoro-1-[2-[4-[[8-(trifluoromethoxy)-5-quinolyl]amino]-1-piperidyl]acetyl]pyrrolidine-2-carbonitrile]	4580 nM	2.62
N#C[C@@H]1CCCN1C(=O)CN1CC[C@H](Nc2ccc(C(F)(F)F)c3ncccc23)C1 [Example 245, (2S)-1-[2-[(3S)-3-[[8-(trifluoromethyl)-5-quinolyl]amino]pyrrolidin-1-yl]acetyl]pyrrolidine-2-carbonitrile]	9470 nM	> 100
COc1cnc2cccc(NC3CCN(CC(=O)N4C[C@@H](F)C[C@H]4C#N)CC3)c2c1 [Example 348, (2S,4S)-4-fluoro-1-[2-[4-[(3-methoxy-5-quinolyl)amino]-1-piperidyl]acetyl]pyrrolidine-2-carbonitrile]	10000 nM	2.44
N#C[C@@H]1C[C@H](F)CN1C(=O)CN1CC[C@H](Nc2cccc3ncccc23)C1 [Example 228, (2S,4S)-4-fluoro-1-[2-[(3S)-3-(5-quinolylamino)pyrrolidin-1-yl]acetyl]pyrrolidine-2-carbonitrile]	4290 nM	10.8
Cc1ccc2nccc(OC3CCN(CC(=O)N4C[C@@H](F)C[C@H]4C#N)CC3)c2c1 [Example 410, (2S,4S)-4-fluoro-1-[2-[4-[(6-methyl-4-quinolyl)oxy]-1-piperidyl]acetyl]pyrrolidine-2-carbonitrile]	3170 nM	10.7
N#C[C@@H]1C[C@H](F)CN1C(=O)CN1CC[C@H](Nc2ccc(OC(F)(F)F)c3ncccc23)C1 [Example 266, (2S,4S)-4-fluoro-1-[2-[(3S)-3-[[8-(trifluoromethoxy)-5-quinolyl]amino]pyrrolidin-1-yl]acetyl]pyrrolidine-2-carbonitrile]	3170 nM	> 10
N#C[C@@H]1CCCN1C(=O)CN1CC[C@H](Nc2ccc(F)c3ncccc23)C1 [Example 244, (2S)-1-[2-[(3S)-3-[(8-fluoro-5-quinolyl)amino]pyrrolidin-1-yl]acetyl]pyrrolidine-2-carbonitrile]	11100 nM	32.7
COc1ccc(N[C@H]2CCN(CC(=O)N3C[C@@H](F)C[C@H]3C#N)C2)c2cccnc12 [Example 263, (2S,4S)-4-fluoro-1-[2-[(3S)-3-[(8-methoxy-5-quinolyl)amino]pyrrolidin-1-yl]acetyl]pyrrolidine-2-carbonitrile]	3470 nM	3.57
COc1cnc2cccc(N[C@H]3CCN(CC(=O)N4CCC[C@H]4C#N)C3)c2c1 [Example 233, (2S)-1-[2-[(3S)-3-[(3-methoxy-5-quinolyl)amino]pyrrolidin-1-yl]acetyl]pyrrolidine-2-carbonitrile]	11500 nM	28.1
N#C[C@@H]1C[C@H](F)CN1C(=O)CN1CCC(Nc2cccc3cnc(Cl)cc23)CC1 [Example 352, (2S,4S)-1-[2-[4-[(3-chloro-5-isoquinolyl)amino]-1-piperidyl]acetyl]-4-fluoro-pyrrolidine-2-carbonitrile]	10700 nM	> 10
N#C[C@@H]1C[C@H](F)CN1C(=O)CN1CCC(Nc2cccc3ncc(F)cc23)CC1 [Example 349, (2S,4S)-4-fluoro-1-[2-[4-[(3-fluoro-5-quinolyl)amino]-1-piperidyl]acetyl]pyrrolidine-2-carbonitrile]	5200 nM	2.9
N#Cc1cnc2cccc(N[C@H]3CCN(CC(=O)N4CCC[C@H]4C#N)C3)c2c1 [Example 232, 5-[[(3S)-1-[2-oxo-2-[(2S)-2-cyanopyrrolidin-1-yl]ethyl]pyrrolidin-3-yl]amino]quinoline-3-carbonitrile]	13700 nM	> 100

Reference: patent publication US11655235B2, “Pyrrolidine and piperidine compounds” (YUHAN CORPORATION, priority 2019, dated 2023)
